This note sets out measurements from PubChem BioAssay AID1963829 (Molecular Pharmacology Branch, DTP, NCI, 2024).

In this assay the test system is 935938-334-R-J1-PDC complex spheroid viability. Nature of the assay: Anticancer human tumor 935938-334-R-J1-PDC patient-derived small intestine adenocarcinoma cell line growth inhibition [POLQ]. The settings on record: for viability, T/C: stronger effect = lower value. How it is done:
Multicellular complex tumor spheroid response to Polymerase (POL) inhibitors (novobiocin, ART-558, RP6685) in combination with a variety of drugs and investigational agents in selected tumor cell lines
The POL inhibitors (novobiocin, ART-558, and RP6685) were evaluated both individually and in combination with standard of care and investigational anticancer small molecules within a complex spheroid model of solid tumors. . Complex spheroids include a stromal component modeled by human endothelial cells (HUVEC) and fibroblasts modeled by human mesenchymal stem cells (MSCs). The concentration ranges selected for each drug and investigational agent were based upon clinically achievable concentrations if the clinical Cmax of the agent was known.
Compounds. The drugs and investigational agents: novobiocin (NSC847541), ART-558 (NSC835418), RP-6685 (NSC848927), peposertib (NSC802822), ceralasertib (NSC780249), elimusertib (NSC800525), camonsertib (NSC841442), AZD-1390 (NSC803789), olaparib (NSC753686), talazoparib (NSC767125), rucaparib (NSC756644), sotorasib (NSC818433), MRTX-1133 (NSC836407), SN-38 (NSC673596), topotecan (NSC609699), epotoside (NSC141540), doxorubicin (NSC123127), gemcitabine (NSC613327), 5-fluorouracil (NSC19893), paclitaxel (NSC125973), vemurafenib (NSC761431), MSA-2 (NSC828583), SN-011 (NSC837082), adavosertib (NSC754352), prexasertib (NSC758257), carboplatin (NSC241240) and oxaliplatin (NSC266046), were obtained from the National Cancer Institute (NCI) Developmental Therapeutics Program Chemical Repository (21). The FDA-approved anticancer drug set is available from the Developmental Therapeutics Program at https://dtp.cancer.gov/organization/dscb/obtaining/. […] The stock solutions were prepared in dimethyl sulfoxide (DMSO, Sigma-Aldrich, St. Louis, MO, cat. D2650), except for the platinum compounds which were prepared in saline (Quality Biological, Gaithersburg, MD, cat. 114-055-101), at 800-fold the tested concentration and stored at -70 degrees C prior to their use. All drugs and investigational agents were tested over a range starting from a high concentration at or near the clinical Cmax and decreasing in half-log increments. If the clinical Cmax for an agent had not been determined, the highest concentration tested was 10 microM, except for SN-38, which was tested at a high concentration of 1 microM.
Cell Culture. All cells were maintained in an incubator at 37 degrees C and 5% CO2 with 95% humidity. The PDC lines were cultured according to standard operating procedures established by the NCI PDMR (https://pdmr.cancer.gov). Table 3 of the manuscript, lists the cell lines along with the number of the three cell types plated to form the mct-spheroids and media for tumor cell growth. After thawing, all PDC lines, except 997537-175-T-J1-PDC and 415267-285-R-J2-PDC, were cultured in Matrigel-coated flasks prepared with a working solution of 1X Ham's F-12 nutrient mix, without supplementation (Thermo Fisher Scientific, cat. 11765054), 100 U/mL penicillin-streptomycin (Thermo Fisher Scientific, cat. 15140122), and 2.5% Matrigel (Corning Inc., Corning, NY, cat. 354248) for the first three passages. The two PDC lines 997537-175-T-J1-PDC and 415267-285-R-J2-PDC were cultured on uncoated flasks. The 857933-349-R-J2-PDC line was cultured in 6C/Colon 1B media containing advanced DMEM/F-12 (Thermo Fisher Scientific, cat. 12634028), 10 mM HEPES (Thermo Fisher Scientific, cat. 15630080), 1X GlutaMAX supplement (Thermo Fisher Scientific, cat. 35050061), 0.1 mg/mL primocin (InvivoGen, San Diego, CA, cat. ant-pm-2), 10% defined fetal bovine serum, heat inactivated (HyClone Laboratories Inc., Logan, UT, cat. SH30070.03HI), 50% L-WRN conditioned media (ATCC, cat. CRL-3276), 1.25 mM N-Acetyl-L-cysteine (Sigma-Aldrich, cat. A9165), 10 mM nicotinamide (Sigma-Aldrich, cat. N0636), 1X B-27 supplement (Thermo Fisher Scientific, cat. 17504044), 1X N-2 supplement (Thermo Fisher Scientific, cat. […]

Setting [1] is: curve of first compound, second compound 0.0316 µM.
Where [2] appears, read: curve of first compound, second compound 0.1 µM.
The mark [3] stands for this setting: curve of first compound, second compound 0.316 µM.
Where [4] appears, read: curve of first compound, second compound 1 µM.
Where [5] appears, read: curve of first compound, second compound 3.16 µM.
Where [6] appears, read: curve of first compound, second compound 10 µM.
Where [7] appears, read: second compound 0.0316 µM, first compound 0.0316 µM.
[8] abbreviates: second compound 0.0316 µM, first compound 0.1 µM.
Where [9] appears, read: second compound 0.0316 µM, first compound 0.316 µM.
[10] abbreviates: second compound 0.0316 µM, first compound 1 µM.
The mark [11] stands for this setting: second compound 0.0316 µM, first compound 3.16 µM.
[12] abbreviates: second compound 0.0316 µM, first compound 10 µM.
[13] abbreviates: second compound 0.1 µM, first compound 0.0316 µM.
Where [14] appears, read: second compound 0.1 µM, first compound 0.1 µM.
[15] abbreviates: second compound 0.1 µM, first compound 0.316 µM.
Where [16] appears, read: second compound 0.1 µM, first compound 1 µM.
[17] abbreviates: second compound 0.1 µM, first compound 3.16 µM.
Setting [18] is: second compound 0.1 µM, first compound 10 µM.
[19] abbreviates: second compound 0.316 µM, first compound 0.0316 µM.
The mark [20] stands for this setting: second compound 0.316 µM, first compound 0.1 µM.
[21] abbreviates: second compound 0.316 µM, first compound 0.316 µM.
The mark [22] stands for this setting: second compound 0.316 µM, first compound 1 µM.
Where [23] appears, read: second compound 0.316 µM, first compound 3.16 µM.
Setting [24] is: second compound 0.316 µM, first compound 10 µM.
The mark [25] stands for this setting: second compound 1 µM, first compound 0.0316 µM.
The mark [26] stands for this setting: second compound 1 µM, first compound 0.1 µM.
Where [27] appears, read: second compound 1 µM, first compound 0.316 µM.
[28] abbreviates: second compound 1 µM, first compound 1 µM.
[29] abbreviates: second compound 1 µM, first compound 3.16 µM.
Where [30] appears, read: second compound 1 µM, first compound 10 µM.
[31] abbreviates: second compound 3.16 µM, first compound 0.0316 µM.
Setting [32] is: second compound 3.16 µM, first compound 0.1 µM.
Where [33] appears, read: second compound 3.16 µM, first compound 0.316 µM.
Where [34] appears, read: second compound 3.16 µM, first compound 1 µM.
Setting [35] is: second compound 3.16 µM, first compound 3.16 µM.
Where [36] appears, read: second compound 3.16 µM, first compound 10 µM.
The mark [37] stands for this setting: second compound 10 µM, first compound 0.0316 µM.
Where [38] appears, read: second compound 10 µM, first compound 0.1 µM.
Setting [39] is: second compound 10 µM, first compound 0.316 µM.
Setting [40] is: second compound 10 µM, first compound 1 µM.
Setting [41] is: second compound 10 µM, first compound 3.16 µM.
[42] abbreviates: second compound 10 µM, first compound 10 µM.

Each structure is given as a SMILES string. “And” between values parts separate entries of the source, which are not always exact repeats. Identical values can stand only once.
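Also: spheroids exposed to drugs for seven days before viability read.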
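For viability, T/C in this document: 100% = DMSO vehicle control wells.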

As for `CCCS(=O)(=O)Nc1ccc(F)c(C(=O)c2c[nH]c3ncc(-c4ccc(Cl)cc4)cc23)c1F` + COC1C(OC(N)=O)C(O)C(Oc2ccc3c(O)c(NC(=O)c4ccc(O)c(CC=C(C)C)c4)c(=O)oc3c2C)OC1(C)C, the 50% inhibitory concentration (IC50) stood at 9.13 µM under setting [1]; 8.46 µM under setting [2]; 9.27 µM under setting [3]; 8.52 µM under setting [4]; 9.73 µM under setting [5]; 9.94 µM under setting [6]. Besides, the viability, T/C reads like this: under setting [7], 96.1%; under setting [8], 142%; under setting [9], 118%; under setting [10], 111%; under setting [11], 101%; under setting [12], 45.4%. Also, the viability, T/C reads like this: under setting [13], 113%; under setting [14], 80.5%; under setting [15], 103%; under setting [16], 110%; under setting [17], 134%; under setting [18], 40.2%. In addition, the viability, T/C under setting [19] is 73.6%; the viability, T/C under setting [20] is 98.8%; the viability, T/C under setting [21] was 119%; the viability, T/C under setting [22] is 121%; the viability, T/C under setting [23] is 125%; the viability, T/C under setting [24] is 45.9%. For the same compound, the viability, T/C under setting [25] was 116%; the viability, T/C under setting [26] is 117%; the viability, T/C under setting [27] is 101%; the viability, T/C under setting [28] was 131%; the viability, T/C under setting [29] was 111%; the viability, T/C under setting [30] is 40.1%. The viability, T/C is 114% under setting [31]; 107% under setting [32]; 120% under setting [33]; 147% under setting [34]; 111% under setting [35]; 48.7% under setting [36]. Besides, the viability, T/C was 104% under setting [37]; 97.6% under setting [38]; 130% under setting [39]; 129% under setting [40]; 127% under setting [41]; 49.6% under setting [42].

In the case of `CC(=O)O[C@H]1C(=O)[C@@]2(C)[C@H]([C@H](OC(=O)c3ccccc3)[C@]3(O)C[C@H](OC(=O)[C@H](O)[C@@H](NC(=O)c4ccccc4)c4ccccc4)C(C)=C1C3(C)C)[C@]1(OC(C)=O)CO[C@@H]1C[C@@H]2O`, the viability, T/C was 35.5% and 53.2% and 37.8% (compound 0.00949 µM); 18.7% and 20.8% and 19.2% (compound 0.03 µM); 15.8% and 15.7% and 16% (compound 0.0949 µM); 12.4% and 16.4% and 17% (compound 0.3 µM); 14.9% and 15.7% and 13.9% (compound 0.949 µM); 17.9% and 19.1% and 19.5% (compound 3 µM). Further, the 50% inhibitory concentration (IC50) (curve of compound) was < 0.00949 µM and 0.0106 µM.

Take `Nc1ccc(C#CCN(C(=O)Cc2ncc(C(F)(F)F)cc2C(F)(F)F)c2ccc(F)cc2)nn1`: the IC50 (compound alone, run of 12/05/2023) is > 10 µM.

As to `O=c1[nH]cc(F)c(=O)[nH]1`, the viability, T/C reads like this: (compound 0.0316 µM) 103% and 81.1% and 79.2%; (compound 0.1 µM) 114% and 90.2% and 81.6%; (compound 0.316 µM) 113% and 80.6% and 77.4%; (compound 1 µM) 90.5% and 72.5% and 74.6%; (compound 3.16 µM) 75.5% and 63.4% and 54.9%; (compound 10 µM) 59% and 54.3% and 47.8%. In addition, the concentration for half-maximal inhibition (IC50) (curve of compound) is > 10 µM and 7.01 µM.

With `O=C(c1cc(Cc2n[nH]c(=O)c3ccccc23)ccc1F)N1CCN(C(=O)C2CC2)CC1`, the viability, T/C reads like this: (compound 0.0316 µM) 88.4% and 80.5% and 75%; (compound 0.1 µM) 103% and 70.2% and 77.2%; (compound 0.316 µM) 100% and 67.5% and 112%; (compound 1 µM) 94.9% and 67.4% and 68.7%; (compound 3.16 µM) 72% and 64.6% and 73.7%; (compound 10 µM) 54.9% and 55.4% and 55.1%. For the same compound, the IC50 (curve of compound) was > 10 µM.

Turning to `O=C(Nc1ccc(O)c(NS(=O)(=O)c2ccc(F)cc2)c1)c1ccc(-c2ccccc2)cc1` + Cc1cccc(N(C)C(=O)C2C(O)CCN2c2nc(C)cc(C(F)(F)F)c2C#N)c1, the concentration for half-maximal inhibition (IC50) runs as follows: under setting [1], > 10 µM; under setting [2], > 10 µM; under setting [3], > 10 µM; under setting [4], > 10 µM; under setting [5], > 10 µM; under setting [6], 8.04 µM. In addition, the viability, T/C under setting [7] was 116%; the viability, T/C under setting [8] was 91%; the viability, T/C under setting [9] is 99.3%; the viability, T/C under setting [10] was 95%; the viability, T/C under setting [11] was 89.3%; the viability, T/C under setting [12] was 64.8%. For the same compound, the viability, T/C by setting is: under setting [13], 83%; under setting [14], 73.9%; under setting [15], 76.1%; under setting [16], 109%; under setting [17], 98.1%; under setting [18], 65.9%. The viability, T/C under setting [19] was 85.9%; the viability, T/C under setting [20] is 93.9%; the viability, T/C under setting [21] was 71.4%; the viability, T/C under setting [22] is 99.2%; the viability, T/C under setting [23] was 123%; the viability, T/C under setting [24] is 65.1%. Further, the viability, T/C runs as follows: under setting [25], 91.3%; under setting [26], 80.3%; under setting [27], 100%; under setting [28], 92.2%; under setting [29], 72.8%; under setting [30], 56.2%. For the same compound, the viability, T/C under setting [31] is 93.2%; the viability, T/C under setting [32] was 114%; the viability, T/C under setting [33] is 95.3%; the viability, T/C under setting [34] is 88.6%; the viability, T/C under setting [35] was 98.6%; the viability, T/C under setting [36] is 61%. Also, the viability, T/C was 92.4% under setting [37]; 106% under setting [38]; 101% under setting [39]; 100% under setting [40]; 71.1% under setting [41]; 45.1% under setting [42].
